Test results from US12617779B2, “Self degradation-type CDK9 inhibitor prodrug and liposome encapsulating same” (Sumitomo Pharma Co., Ltd., priority 2021, dated 2026).

How the values were obtained:
[1] = Stability evaluation of solution formulation (Experimental Example 2); format: physicochemical; settings: for Stability / conversion to Alvocidib in solution formulation at pH 3: pH 3, 5° C.; for Stability / conversion to Alvocidib in solution formulation at pH 3 / Stability / conversion to Alvocidib in solution formulation at pH 4: up to 4 weeks; for Stability / conversion to Alvocidib in solution formulation at pH 4: pH 4, 5° C.
Description: For Example 1, Example 2, Example 5, Example 6, Comparative Example 13 and Comparative Example 14, the attrition rate of the test compound and the conversion rate of the test compound to Alvocidib in a solution formulation were calculated by the following method.
Example 1, Example 2, Example 5, Example 6, Comparative Example 13 and Comparative Example 14 were each added to buffer solutions adjusted to pH 3.0, 4.0 and 5.0, respectively, at a concentration of 0.1 mg/mL, and left at 5° C. After 0, 1, 2 and 4 weeks, the residual rates of the compounds of Example 1, Example 2, […], Comparative Example 13 and Comparative Example 14 and the production rate of Alvocidib were determined by HPLC.
The buffer solutions used at each pH are as follows. • pH 3.0: 5 mM tartrate buffer solution/10% sucrose solution (pH 3.0) • pH 4.0: 5 mM tartrate buffer solution/10% sucrose solution (pH 4.0) • pH 5.0: 5 mM tartrate buffer solution/10% sucrose solution (pH 5.0)
The measurement conditions for HPLC are as follows.
• column: Acquity UPLC BEH C18, 1.7 um, 50×2.1 mm • column temperature: 40° C. • mobile phase: • A: water containing 0.1% trifluoroacetic acid • B: acetonitrile • A/B (min): • 80/20(0)→75/25(3)→0/100(3.5)→0/100(4)→80/20(4.01)→80/20(5) • flow rate: 0.8 mL/min • detection: ultraviolet visible detector, measurement wavelength 254 nm • injection: 3 μL

EMT6 cells = experiment: Drug efficacy evaluation test using tumor-bearing mice transplanted with EMT6 cells (Experimental Example 7); format: in vivo, BALB/c mice; settings: liposome formulation, tail vein, 25 mg/kg and 50 mg/kg twice a week
Description: The liposome formulation encapsulating the compound of the present disclosure was treated and evaluated for anti-tumor effect.
The liposome formulations were prepared as follows. The liposomes encapsulating the compounds of Example 3 and Example 4 were prepared in the same manner as in Experimental Example 4, respectively. The liposome outer solution was replaced with 10 mM tartrate buffer solution/10% sucrose solution (pH 4) using Sephadex G-25 column (PD-10, manufactured by GE Healthcare), followed by concentration by an ultrafiltration filter (AmiconUltra, 100K, 15 mL, manufactured by Merck), and filtration through a 0.22 μm membrane filter.
EMT6 cells (ATCC) were intradermally transplanted into 5-week-old BALB/c mice (BALB/cAnNCrlCrlj, female, Charles River, Japan) around the ventral region at 5×10^5 cells/mouse. […] The tumor volume was measured over time from the start of administration, and the tumor volume reduction effect due to compound administration was evaluated. The tumor volume was calculated by the following formula using the short and long diameters of the tumor measured with an electronic caliper (Mitutoyo). […]
The anti-tumor effect was evaluated by comparing the control group administered with the empty liposome solution and the administration group of the compound of the present disclosure, and calculating T/C by the following formula.

[2] = solution formulation, pH3.0, 0 week
[3] = solution formulation, pH3.0, 1 week
[4] = solution formulation, pH3.0, 2 week
[5] = solution formulation, pH3.0, 4 week
[6] = solution formulation, pH4.0, 0 week
[7] = solution formulation, pH4.0, 1 week
[8] = solution formulation, pH4.0, 2 week
[9] = solution formulation, pH4.0, 4 week
[10] = solution formulation, pH5.0, 0 week
[11] = solution formulation, pH5.0, 1 week
[12] = solution formulation, pH5.0, 2 week
[13] = solution formulation, pH5.0, 4 week

SMILES	Stability / conversion to Alvocidib in solution formulation at pH 3 [1]	Stability / conversion to Alvocidib in solution formulation at pH 4 [1]	Production rate of Alvocidib [1, 2] [%]	Production rate of Alvocidib [1, 3] [%]	Production rate of Alvocidib [1, 4] [%]	Production rate of Alvocidib [1, 5] [%]	Production rate of Alvocidib [1, 6] [%]	Production rate of Alvocidib [1, 7] [%]	Production rate of Alvocidib [1, 8] [%]	Production rate of Alvocidib [1, 9] [%]	Production rate of Alvocidib [1, 10] [%]	Production rate of Alvocidib [1, 11] [%]	Production rate of Alvocidib [1, 12] [%]	Production rate of Alvocidib [1, 13] [%]	Residual rate [1, 2] [%]	Residual rate [1, 3] [%]	Residual rate [1, 4] [%]	Residual rate [1, 5] [%]	Residual rate [1, 6] [%]	Residual rate [1, 7] [%]	further results
CCN(C[C@@H]1CCCCN1)C(=O)Oc1cc(O)c2c(=O)cc(-c3ccccc3Cl)oc2c1[C@H]1CCN(C)C[C@H]1O [Example 1, 2-(2-chlorophenyl)-5-hydroxy-8-[(3S,4R)-3-hydroxy-1-methylpiperidin-4-yl]-4-oxo-4H-1-benzopyran-7-yl ethyl{[(2S)-piperidin-2-yl]methyl}carbamate ditrifluoroacetate]	stable	stable	0.0	0.0	0.1	0.1	0.0	0.1	0.2	0.4	0.1	1.2	1.9	3.2							Residual rate ([1]; solution formulation pH3.0, 0 week, 5° C., 0.1 mg/mL): 99.2%; Residual rate ([1]; solution formulation pH3.0, 1 week, 5° C., 0.1 mg/mL): 99.2%; Residual rate ([1]; solution formulation pH3.0, 2 weeks, 5° C., 0.1 mg/mL): 99.0%; Residual rate ([1]; solution formulation pH3.0, 4 weeks, 5° C., 0.1 mg/mL): 99.0%; Residual rate ([1]; solution formulation pH4.0, 0 week, 5° C., 0.1 mg/mL): 99.5%; Residual rate ([1]; solution formulation pH4.0, 1 week, 5° C., 0.1 mg/mL): 99.3%; Residual rate ([1]; solution formulation pH4.0, 2 weeks, 5° C., 0.1 mg/mL): 99.1%; Residual rate ([1]; solution formulation pH4.0, 4 weeks, 5° C., 0.1 mg/mL): 99.1%; Residual rate ([1]; solution formulation pH5.0, 0 week, 5° C., 0.1 mg/mL): 99.4%; Residual rate ([1]; solution formulation pH5.0, 1 week, 5° C., 0.1 mg/mL): 98.5%; Residual rate ([1]; solution formulation pH5.0, 2 weeks, 5° C., 0.1 mg/mL): 97.6%; Residual rate ([1]; solution formulation pH5.0, 4 weeks, 5° C., 0.1 mg/mL): 96.5%
CCN(C[C@H]1CCCCN1)C(=O)Oc1cc(O)c2c(=O)cc(-c3ccccc3Cl)oc2c1[C@H]1CCN(C)C[C@H]1O [Example 2, 2-(2-chlorophenyl)-5-hydroxy-8-[(3S,4R)-3-hydroxy-1-methylpiperidin-4-yl]-4-oxo-4H-1-benzopyran-7-yl ethyl{[(2R)-piperidin-2-yl]methyl}carbamate]	stable	stable	0.0	0.0	0.0	0.1	0.0	0.1	0.2	0.3	0.1	1.1	1.9	3.1	96.5	96.5	96.4	96.5	96.4	96.5	Residual rate [1, 8]: 96.4%; Residual rate [1, 9]: 96.4%; Residual rate [1, 10]: 96.4%; Residual rate [1, 11]: 95.5%; Residual rate [1, 12]: 94.5%; Residual rate [1, 13]: 93.0%
CN1CC[C@H](c2c(OC(=O)N(C)C[C@@H]3CCCCN3)cc(O)c3c(=O)cc(-c4ccccc4Cl)oc23)[C@H](O)C1 [Example 3, 2-(2-chlorophenyl)-5-hydroxy-8-[(3S,4R)-3-hydroxy-1-methylpiperidin-4-yl]-4-oxo-4H-1-benzopyran-7-yl methyl{[(2S)-piperidin-2-yl]methyl}carbamate]																					Effect on tumor volume (EMT6 cells): significantly inhibited the increase in tumor volume
CN1CC[C@H](c2c(OC(=O)N(C)C[C@H]3CCCCN3)cc(O)c3c(=O)cc(-c4ccccc4Cl)oc23)[C@H](O)C1 [Example 4, 2-(2-chlorophenyl)-5-hydroxy-8-[(3S,4R)-3-hydroxy-1-methylpiperidin-4-yl]-4-oxo-4H-1-benzopyran-7-yl methyl{[(2R)-piperidin-2-yl]methyl}carbamate]																					Effect on tumor volume (EMT6 cells): significantly inhibited the increase in tumor volume
CCCN(C[C@@H]1CCCCN1)C(=O)Oc1cc(O)c2c(=O)cc(-c3ccccc3Cl)oc2c1[C@H]1CCN(C)C[C@H]1O [Example 5, 2-(2-chlorophenyl)-5-hydroxy-8-[(3S,4R)-3-hydroxy-1-methylpiperidin-4-yl]-4-oxo-4H-1-benzopyran-7-yl {[(2S)-piperidin-2-yl]methyl}propylcarbamate]	stable	stable	0.2	0.2	0.3	0.3	0.2	0.3	0.4	0.5	0.4	1.2	2.1	3.7	98.2	98.2	98.1	98.1	98.2	98.2	Residual rate [1, 8]: 98.1%; Residual rate [1, 9]: 98.1%; Residual rate [1, 10]: 98.1%; Residual rate [1, 11]: 97.2%; Residual rate [1, 12]: 96.6%; Residual rate [1, 13]: 95.0%
CCCN(C[C@H]1CCCCN1)C(=O)Oc1cc(O)c2c(=O)cc(-c3ccccc3Cl)oc2c1[C@H]1CCN(C)C[C@H]1O [Example 6, 2-(2-chlorophenyl)-5-hydroxy-8-[(3S,4R)-3-hydroxy-1-methylpiperidin-4-yl]-4-oxo-4H-1-benzopyran-7-yl {[(2R)-piperidin-2-yl]methyl}propylcarbamate]	stable	stable	0.5	0.5	0.6	0.6	0.5	0.7	0.8	0.9	0.7	1.6	2.6	4.6	98.8	98.8	98.8	98.8	98.8	98.7	Residual rate [1, 8]: 98.5%; Residual rate [1, 9]: 98.2%; Residual rate [1, 10]: 98.7%; Residual rate [1, 11]: 97.0%; Residual rate [1, 12]: 95.3%; Residual rate [1, 13]: 91.8%
